The source of these data is patent US11607403B2, “Methods and compositions for promoting adult neurogenesis” (Morningside Ventures Limited, priority 2015, dated 2023).

“Also recorded” adds a separate entry of the source.

The subject of test [1] is mouse hippocampus. As to the kind of experiment: Neural progenitor amplification (BrdU incorporation) after intracerebroventricular osmotic pump infusion. The format is in vivo. The note with it: 1 mM intracerebroventricular, 0.5 μl per hour, 7 days, compared to allopurinol or vehicle alone. Here is the method:
To assess the effects of febuxostat on neural progenitor amplification, febuxostat or allopurinol (1 mM) were intracerebroventricularly delivered via osmotic pump infusion (0.5 μl per hour) to mouse brains for 7 days. Control subjects received vehicle alone. BrdU was administered in four injections on day 6, and brain tissues were harvested on day 7. Neural progenitor amplification was measured by quantifying the number of BrdU-positive cells in the subgranular zone (SGZ) of hippocampal tissue sections.
(In general: Uptake of a labelled nucleoside into DNA is a usual measure of proliferation.)

Test [2] concerns mouse hippocampus. Nature of the test: Neuronal differentiation (DCX with BrdU) after intracerebroventricular osmotic pump infusion. The format is in vivo. The note with it: 1 mM intracerebroventricular 7 days, tissue harvested day 14, compared to allopurinol or vehicle alone. Here is the method:
To assess the effects of febuxostat on adult neurogenesis, febuxostat or allopurinol (1 mM) were delivered to mouse brains for 7 days as described above. BrdU was administered in eight injections over days 2-3. The osmotic pump was removed on day 7 and brain tissues were harvested on day 14. The hippocampal slices were subjected to immunohistochemical analysis for the detection of BrdU and doublecortin (DCx) (newly formed neuron marker) stained cells in the subgranular zone of the hippocampus.

Test [3] concerns hippocampus of mice subjected to chronic restraint stress. As to the kind of experiment: Neural progenitor amplification (BrdU-positive cells) in mice under chronic restraint stress. The format is in vivo, mouse. The note with it: for neuron progenitor amplification (BrdU incorporation): vs allopurinol, vehicle and unrestrained controls, n=3 mice. Here is the method:
(§1) Murine subjects underwent CRS on day zero, with febuxostat (1 mg kg^−1 d^−1) allopurinol (20 mg kg^−1 d^−1), Rhy37 (10 mg kg^−1 d^−1), or vehicle alone, administered daily intragastrically beginning on day 15. BrdU was administered on day 36, and brain tissues harvested on day 37 or 50. Control subjects remained free throughout the trial period. Neural progenitor amplification was measured by quantifying the number of BrdU-positive cells in hippocampal tissue sections. […] Results were compared using a one-way ANOVA test.

Test [4] shares this test system. As to the kind of experiment: Neuronal differentiation (DCX+/BrdU-positive cells) in mice under chronic restraint stress. The test is classed as in vivo, mouse. Here is the method: as §1
Where [5] appears, read: CRS mice, daily intragastric from day 15, harvest day 37 or 50, compared to allopurinol or vehicle alone.

Turning to `Cc1nc(-c2ccc(OCC(C)C)c(C#N)c2)sc1C(=O)O` [febuxostat, 2-(3-cyano-4-isobutoxyphenyl)-4-methyl-1,3-thiazole-5-carboxylic acid], the “neural progenitor amplification (BrdU-positive cells in the subgranular zone)” value in the test with mouse hippocampus [1] is listed as “promotes neural progenitor amplification; also recorded: increased levels”. Moreover, in the test with mouse hippocampus [2], the “neural differentiation (BrdU and doublecortin stained cells in the subgranular zone)” value was “neuronal differentiation; also recorded: increased levels”. The “neuron progenitor amplification (BrdU incorporation)” value in test [3] (37 days of chronic restraint stress) and in test [3] (50 days of chronic restraint stress) was “promotes neuron progenitor amplification” throughout. For the same compound, in test [3] (setting [5]), the “neural progenitor amplification (BrdU-positive cells)” value was “increased levels”. Besides, in test [4] (50 days of chronic restraint stress, vs allopurinol, vehicle and unrestrained controls), the “neuronal differentiation (DCX expression with BrdU incorporation)” value is reported as “promotes neuronal differentiation”. Further, in test [4] (setting [5]), the “neural differentiation (DCX+/BrdU-positive cells)” value was “increased levels”.
